How the values were obtained:
[1] = system: patient-derived xenograft of ovarian cancer (Ov10584); test: Anti-tumor efficacy of NOV202 alone and in combination with olaparib in patient-derived xenograft of ovarian cancer (Example 1); assay type: in vivo; settings: for T/C (tumor/control) value: NMRI:nu/nu mice, Ov10584 s.c., once a day for 14 days (days 8-22), combination same dosage and schedule
Excerpt: A Study of Anti-Tumor Efficacy of NOV202 Alone and in Combination with Olaparib in a Patient-Derived Xenograft of Ovarian Cancer (Ov10584)
NMRI:nu/nu female (Janvier) mice (8 weeks old) were used as follows: 4 animals in the vehicle group, 4 animals in NOV202 group, Olaparib group and in the combination group of NOV202 and olaparib, respectively. NOV202 was synthesized as described in WO 2012/127032. Olaparib was purchased from LC Laboratories. The patient-derived xenograft Ov10584 was used at passage number 7. All mice received tissue fragments of 2×2 mm subcutaneously at day 0, and tumors were allowed to reach palpable sizes of 118 mm^3 (mean) (the study day 8) prior to start the treatments. NOV202 group was administered PO at a dose 30 mg/kg and olaparib group was administered PO at a dose 100 mg/kg. The combination of NOV202 and olaparib group had the same dosage and schedule as in monotherapy. NOV202 was given in the morning (5 ml/kg) and olaparib in the afternoon (10 ml/kg). All three groups were administered 14 days once a day (days 8-22). The tumor volumes and body weights of animals were measured at regular intervals (day 7, 9, 13, 15, 19, 22, 27, all groups, and continued to measure the combination group day 29, 33, 36, 40, 43, 47, 50, 54, 57).

[2] = system: patient-derived xenograft Ov10584; test: Anti-tumor efficacy of NOV202 with olaparib vs. plinabulin with olaparib in patient-derived xenograft of ovarian cancer (Example 2); assay type: in vivo; settings: NMRI:nu/nu mice, Ov10584 s.c.; NOV202 30 mg/kg PO and olaparib 100 mg/kg PO once a day days 6-19; plinabulin 7.5 mg/kg i.p. days 1, 4, 8, 11, 15; combinations same dosage and schedule
Excerpt: A Study of Anti-Tumor Efficacy of Combination of NOV202 with Olaparib Vs. Combination Plinabulin with Olaparib in a Patient-Derived Xenograft of Ovarian Cancer ([…])
NMRI:nu/nu female (Janvier) mice (8 weeks old) were used as follows: 4 animals in the vehicle group, 4 animals in NOV202 group, olaparib group, plinabulin group, in the combination group of NOV202 and Olaparib, and in the combination group of plinabulin and olaparib, respectively. NOV202 was synthesized as described in WO 2012/127032. Olaparib was purchased from LC Laboratories, and plinabulin was purchased from Sellechem. The patient-derived xenograft Ov10584 was used at passage number 4. All mice received tissue fragments of 2×2 mm subcutaneously into the left flank at day 0, and tumors were allowed to reach palpable sizes of 108 mm^3 (mean) (the study day 6) prior to start the treatments. NOV202 group was administered PO at a dose 30 mg/kg and olaparib group was administered PO at a dose 100 mg/kg, and plinabulin was administered i.p. at a dose 7.5 mg/kg. The combination of NOV202 and olaparib group had the same dosage and schedule as in monotherapy, NOV202 was given in the morning (5 ml/kg) and olaparib in the afternoon (10 ml/kg). The combination of plinabulin and olaparib group had also the same dosage and schedule as in monotherapy. NOV202 and olaparib was administered 14 days once a day (days 6-19), and plinabulin was administered days 1, 4, 8, 11, 15 once a day. The tumor volumes and body weights of animals were measured at regular intervals (day 6, 7, 9, 12, 14, 16, 19, 23, 26 and 29), all groups.

human OC xenograft model = test: In vivo efficacy study in a human OC xenograft model
Excerpt: Development of the tumour vasculature system is essential to tumour growth and metastatic spread of malignant cells. The rationale behind using vasculature targeting agents in anti-cancer therapy is that the cancer cells will be deprived of essential nutrients and oxygen supply for their growth and spread, thereby improving treatment outcome.

[3] = system: ovarian cancer (OC) cell line A2780; test: Anti-proliferative activity in human cancer cell lines; assay type: cell-based; settings: A2780 cells
Excerpt: (§1) Compounds of Formula I, including NOV202, exerts its action by inhibition of tubulin polymerization and thereby the assembly of microtubule structures, which cause a cell cycle arrest and cell death via apoptosis. […] The A2780/Adr multidrug resistant OC cell line overexpresses the P-glycoprotein efflux transporters which confer multidrug resistance.

[4] = system: A2780/Adr multidrug resistant OC cell line; test: Activity in multidrug resistant OC cells; assay type: cell-based, human; settings: A2780/Adr overexpresses P-glycoprotein efflux transporters
Excerpt: as §1

[5] = NOV202 30 mg/kg PO, olaparib 100 mg/kg PO

| Structure (SMILES) | T/C (tumor/control) value [1, 5] [%] | tolerability ([1]; daily treatment for 14 days, NOV202 30 mg/kg PO, olaparib 100 mg/kg PO) | body weight loss ([1]; one day after treatment stop, 30 mg/kg NOV202 daily for 14 days, mice recovered soon) [%] | T/C (tumor/control) value [2] [%] | suppression of tumour growth (human OC xenograft model; human OC xenograft, similar to paclitaxel in this model) | tolerability (human OC xenograft model; oral gavage over a period of 20 days) | anti-proliferative activity [3] | effectiveness in multidrug resistant versus isogenic non-resistant OC cells [4] |
| --- | --- | --- | --- | --- | --- | --- | --- | --- |
| COc1ccc2[nH]cc(CCNc3nccc(Nc4cccc5c4ccn5C)n3)c2c1 [NOV202, N^2-[2-(5-methoxy-1H-indol-3-yl)ethyl]-N^4-(1-methyl-1H-indol-4-yl)pyrimidine-2,4-diamine] | 37 | well tolerated | 6 | 32 | up to 80% | well tolerated | very potent | as effective in multidrug resistant OC cells as in the isogenic (drug sensitive variant) non-resistant OC cells |
| O=C(c1cc(Cc2n[nH]c(=O)c3ccccc23)ccc1F)N1CCN(C(=O)C2CC2)CC1 [olaparib, 4-(3-{[4-(cyclopropylcarbonyl)piperazin-1-yl]carbonyl}-4-fluorobenzyl)phthalazin-1(2H)-one, reference compound] | 20 | – | – | 45 | – | – | – | – |
| CC(C)(C)c1[nH]cnc1/C=c1\[nH]c(=O)/c(=C/c2ccccc2)[nH]c1=O [plinabulin, (3Z,6Z)-3-Benzylidene-6-{[5-(2-methyl-2-propanyl)-1H-imidazol-4-yl]methylene}-2,5-piperazinedione] | – | – | – | 58 | – | – | – | – |
